ChEMBL document CHEMBL4507327 (2021)

What was measured:
[1] = target: Neuropeptide Y receptor type 1 (Homo sapiens) (UniProt P25929); assay: Inhibition of Neuropeptide Y Y1 at 10 µM in the Eurofins-Panlabs radioligand binding assay (Eurofins_assay_257010); details: Compound concentration 10.0 uM
LIM domain kinase 2 = LIM domain kinase 2 (Homo sapiens, UniProt P53671); assay: LIMK2(LIM2LGV1) Takeda global kinase panel
[2] = target: Casein kinase I isoform alpha (Homo sapiens, UniProt P48729); assay: CK1alpha(C1A1PHY1) Takeda global kinase panel
[3] = target: T1, Muscarinic acetylcholine receptor M2 (Homo sapiens) (UniProt P08172); details: Compound concentration 10.0 uM
T1 sequence (whole entry): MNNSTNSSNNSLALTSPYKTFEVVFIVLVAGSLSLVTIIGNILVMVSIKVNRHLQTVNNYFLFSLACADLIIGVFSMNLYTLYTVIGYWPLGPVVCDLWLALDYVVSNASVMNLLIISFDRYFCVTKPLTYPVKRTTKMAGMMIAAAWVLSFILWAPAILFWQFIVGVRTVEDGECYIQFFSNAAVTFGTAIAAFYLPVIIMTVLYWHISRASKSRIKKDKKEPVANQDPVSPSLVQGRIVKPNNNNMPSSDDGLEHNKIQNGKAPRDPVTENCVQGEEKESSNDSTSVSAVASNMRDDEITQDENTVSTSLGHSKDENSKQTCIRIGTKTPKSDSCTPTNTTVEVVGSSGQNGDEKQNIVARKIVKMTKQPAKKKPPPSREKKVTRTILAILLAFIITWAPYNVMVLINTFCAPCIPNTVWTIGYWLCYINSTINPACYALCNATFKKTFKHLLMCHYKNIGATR

Ephrin type-A receptor 4 = Ephrin type-A receptor 4 (Homo sapiens, UniProt P54764); assay: EphA4(EPA4LGF1) Takeda global kinase panel
Ephrin type-A receptor 8 = Ephrin type-A receptor 8 (Homo sapiens, UniProt P29322); assay: EphA8(EPA8LGF1) Takeda global kinase panel
[4] = target: Non-receptor tyrosine-protein kinase TYK2 (Homo sapiens, UniProt P29597); assay: Tyk2(TYK2LGF1) Takeda global kinase panel
[5] = target: Eukaryotic translation initiation factor 2-alpha kinase 3 (Homo sapiens, UniProt Q9NZJ5); assay: PERK [PEK(EIK3CGQ1)] Takeda global kinase panel
[6] = target: Serine/threonine-protein kinase NLK (Homo sapiens, UniProt Q9UBE8); assay: NLK(NLK1LGI5) Takeda global kinase panel
Serine/threonine-protein kinase NLK, sequence (Q9UBE8 whole entry): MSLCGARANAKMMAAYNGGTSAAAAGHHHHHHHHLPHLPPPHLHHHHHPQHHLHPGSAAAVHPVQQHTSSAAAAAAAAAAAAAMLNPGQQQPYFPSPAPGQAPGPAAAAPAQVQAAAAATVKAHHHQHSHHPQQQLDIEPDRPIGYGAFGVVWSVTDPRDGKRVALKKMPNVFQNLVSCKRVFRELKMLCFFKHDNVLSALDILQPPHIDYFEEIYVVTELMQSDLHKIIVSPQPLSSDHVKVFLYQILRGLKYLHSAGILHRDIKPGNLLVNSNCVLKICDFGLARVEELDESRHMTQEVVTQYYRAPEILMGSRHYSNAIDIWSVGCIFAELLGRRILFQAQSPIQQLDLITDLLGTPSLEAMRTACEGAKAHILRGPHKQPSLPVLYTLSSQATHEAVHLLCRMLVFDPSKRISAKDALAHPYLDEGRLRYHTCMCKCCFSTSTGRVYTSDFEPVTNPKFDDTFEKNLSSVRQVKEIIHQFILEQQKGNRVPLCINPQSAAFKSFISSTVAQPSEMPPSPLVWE

[7] = target: Mitogen-activated protein kinase 15 (Homo sapiens, UniProt Q8TD08); assay: ERK7(MP15LGY1) Takeda global kinase panel
[8] = target: Uncharacterized serine/threonine-protein kinase SBK3 (Homo sapiens, UniProt P0C264); assay: SgK110(SG10LGF1) Takeda global kinase panel
Ephrin type-B receptor 3 = Ephrin type-B receptor 3 (Homo sapiens, UniProt P54753); assay: EphB3(EPB3LGRJ) Takeda global kinase panel
Ephrin type-B receptor 3, sequence (P54753 whole entry): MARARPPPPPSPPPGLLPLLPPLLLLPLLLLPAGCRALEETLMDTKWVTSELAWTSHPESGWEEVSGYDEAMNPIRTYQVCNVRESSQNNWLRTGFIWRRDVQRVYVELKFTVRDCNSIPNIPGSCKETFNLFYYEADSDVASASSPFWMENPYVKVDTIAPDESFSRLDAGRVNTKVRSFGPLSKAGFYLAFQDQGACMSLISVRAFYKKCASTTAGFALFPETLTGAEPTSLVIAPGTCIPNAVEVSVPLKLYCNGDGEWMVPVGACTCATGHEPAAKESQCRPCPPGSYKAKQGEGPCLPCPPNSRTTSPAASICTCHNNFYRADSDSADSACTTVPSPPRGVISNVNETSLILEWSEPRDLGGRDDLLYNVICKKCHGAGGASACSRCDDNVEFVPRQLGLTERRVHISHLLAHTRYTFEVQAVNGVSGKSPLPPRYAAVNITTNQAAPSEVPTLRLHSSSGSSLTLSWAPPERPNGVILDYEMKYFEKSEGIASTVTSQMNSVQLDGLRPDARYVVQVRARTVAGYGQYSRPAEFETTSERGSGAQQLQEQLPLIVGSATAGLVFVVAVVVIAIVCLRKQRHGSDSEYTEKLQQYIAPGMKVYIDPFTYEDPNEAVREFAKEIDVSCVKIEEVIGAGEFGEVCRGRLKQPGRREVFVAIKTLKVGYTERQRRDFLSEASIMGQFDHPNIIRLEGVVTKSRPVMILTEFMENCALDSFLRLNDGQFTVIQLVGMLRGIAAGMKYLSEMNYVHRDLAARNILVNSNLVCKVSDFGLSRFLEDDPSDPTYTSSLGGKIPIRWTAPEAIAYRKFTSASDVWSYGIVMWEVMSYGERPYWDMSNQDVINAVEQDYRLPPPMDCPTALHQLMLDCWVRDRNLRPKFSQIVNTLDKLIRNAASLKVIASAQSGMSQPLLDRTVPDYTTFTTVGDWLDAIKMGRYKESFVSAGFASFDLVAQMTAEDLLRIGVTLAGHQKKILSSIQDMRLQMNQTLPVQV

[9] = target: Serine/threonine-protein kinase ULK2 (Homo sapiens, UniProt Q8IYT8); assay: ULK2(ULK2LGY1) Takeda global kinase panel
[10] = target: Dual specificity tyrosine-phosphorylation-regulated kinase 1B (Homo sapiens, UniProt Q9Y463); assay: DYRK1B(DY1BLHY1) Takeda global kinase panel
[11] = target: Serine/threonine-protein kinase MARK2 (Homo sapiens, UniProt Q7KZI7); assay: MARK2(MAR2LGY1) Takeda global kinase panel
[12] = target: Serine/threonine-protein kinase 32A (Homo sapiens, UniProt Q8WU08); assay: YANK1(S32APHY1) Takeda global kinase panel
[13] = target: Interleukin-1 receptor-associated kinase 4 (Homo sapiens, UniProt Q9NWZ3); assay: IRAK4(IRK4LGF1) Takeda global kinase panel
[14] = target: Tyrosine-protein kinase Fgr (Homo sapiens, UniProt P09769); assay: Fgr(FGR1LGF1) Takeda global kinase panel
[15] = target: Mitogen-activated protein kinase 13 (Homo sapiens, UniProt O15264); assay: p38delta(MP13LGP1) Takeda global kinase panel
[16] = target: Serine/threonine-protein kinase 32B (Homo sapiens, UniProt Q9NY57); assay: YANK2(S32BLGY2) Takeda global kinase panel
[17] = target: Homeodomain-interacting protein kinase 2 (Homo sapiens, UniProt Q9H2X6); assay: HIPK2(HIP2LGY1) Takeda global kinase panel
[18] = target: Serine/threonine-protein kinase VRK2 (Homo sapiens, UniProt Q86Y07); assay: VRK2(VRK2LGRI) Takeda global kinase panel
Serine/threonine-protein kinase VRK2, sequence (Q86Y07 whole entry): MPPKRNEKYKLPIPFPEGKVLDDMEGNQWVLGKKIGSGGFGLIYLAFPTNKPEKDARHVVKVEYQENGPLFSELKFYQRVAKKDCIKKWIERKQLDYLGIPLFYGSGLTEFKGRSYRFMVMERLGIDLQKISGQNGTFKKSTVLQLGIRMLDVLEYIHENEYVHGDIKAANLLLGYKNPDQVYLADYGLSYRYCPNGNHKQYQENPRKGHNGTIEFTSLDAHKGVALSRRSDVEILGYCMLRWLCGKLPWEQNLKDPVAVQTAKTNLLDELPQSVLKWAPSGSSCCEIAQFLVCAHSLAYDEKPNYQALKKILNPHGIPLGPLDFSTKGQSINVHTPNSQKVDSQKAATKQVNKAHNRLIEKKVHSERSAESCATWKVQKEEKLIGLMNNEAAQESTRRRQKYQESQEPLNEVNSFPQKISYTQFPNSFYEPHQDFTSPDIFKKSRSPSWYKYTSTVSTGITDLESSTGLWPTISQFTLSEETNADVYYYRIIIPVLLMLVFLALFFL

[19] = target: Casein kinase II subunit alpha (Homo sapiens, UniProt P68400); assay: CK2alpha1(C2A1LGF1) Takeda global kinase panel
[20] = target: Protein kinase C epsilon type (Homo sapiens, UniProt Q02156); assay: PKCepsilon(PRKELHY1) Takeda global kinase panel
[21] = target: Serine/threonine-protein kinase MARK1 (Homo sapiens, UniProt Q9P0L2); assay: MARK1(MAR1PHY1) Takeda global kinase panel
Serine/threonine-protein kinase MARK1, sequence (Q9P0L2 whole entry): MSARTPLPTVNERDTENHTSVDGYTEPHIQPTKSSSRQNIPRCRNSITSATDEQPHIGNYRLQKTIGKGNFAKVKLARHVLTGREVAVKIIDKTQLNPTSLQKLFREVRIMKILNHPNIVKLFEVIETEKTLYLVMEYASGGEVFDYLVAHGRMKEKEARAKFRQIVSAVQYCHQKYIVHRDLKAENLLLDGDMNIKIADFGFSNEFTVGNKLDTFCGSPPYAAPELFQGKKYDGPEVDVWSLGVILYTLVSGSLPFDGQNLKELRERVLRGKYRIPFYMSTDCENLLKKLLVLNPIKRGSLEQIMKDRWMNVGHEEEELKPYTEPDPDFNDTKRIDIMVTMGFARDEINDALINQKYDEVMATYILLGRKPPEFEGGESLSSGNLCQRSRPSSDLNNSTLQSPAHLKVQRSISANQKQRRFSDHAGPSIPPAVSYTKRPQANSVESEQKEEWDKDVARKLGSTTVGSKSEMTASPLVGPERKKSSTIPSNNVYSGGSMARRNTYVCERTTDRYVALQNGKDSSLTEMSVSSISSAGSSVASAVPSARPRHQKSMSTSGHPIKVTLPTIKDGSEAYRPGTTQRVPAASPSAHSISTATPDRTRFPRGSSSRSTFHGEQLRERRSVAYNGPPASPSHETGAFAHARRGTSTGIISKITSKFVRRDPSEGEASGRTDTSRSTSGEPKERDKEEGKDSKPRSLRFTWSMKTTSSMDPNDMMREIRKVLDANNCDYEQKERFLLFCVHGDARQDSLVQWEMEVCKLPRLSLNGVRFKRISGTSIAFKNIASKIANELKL

[22] = target: BMP-2-inducible protein kinase (Homo sapiens, UniProt Q9NSY1); assay: BIKE(BM2KLGY1) Takeda global kinase panel
BMP-2-inducible protein kinase, sequence (Q9NSY1 whole entry): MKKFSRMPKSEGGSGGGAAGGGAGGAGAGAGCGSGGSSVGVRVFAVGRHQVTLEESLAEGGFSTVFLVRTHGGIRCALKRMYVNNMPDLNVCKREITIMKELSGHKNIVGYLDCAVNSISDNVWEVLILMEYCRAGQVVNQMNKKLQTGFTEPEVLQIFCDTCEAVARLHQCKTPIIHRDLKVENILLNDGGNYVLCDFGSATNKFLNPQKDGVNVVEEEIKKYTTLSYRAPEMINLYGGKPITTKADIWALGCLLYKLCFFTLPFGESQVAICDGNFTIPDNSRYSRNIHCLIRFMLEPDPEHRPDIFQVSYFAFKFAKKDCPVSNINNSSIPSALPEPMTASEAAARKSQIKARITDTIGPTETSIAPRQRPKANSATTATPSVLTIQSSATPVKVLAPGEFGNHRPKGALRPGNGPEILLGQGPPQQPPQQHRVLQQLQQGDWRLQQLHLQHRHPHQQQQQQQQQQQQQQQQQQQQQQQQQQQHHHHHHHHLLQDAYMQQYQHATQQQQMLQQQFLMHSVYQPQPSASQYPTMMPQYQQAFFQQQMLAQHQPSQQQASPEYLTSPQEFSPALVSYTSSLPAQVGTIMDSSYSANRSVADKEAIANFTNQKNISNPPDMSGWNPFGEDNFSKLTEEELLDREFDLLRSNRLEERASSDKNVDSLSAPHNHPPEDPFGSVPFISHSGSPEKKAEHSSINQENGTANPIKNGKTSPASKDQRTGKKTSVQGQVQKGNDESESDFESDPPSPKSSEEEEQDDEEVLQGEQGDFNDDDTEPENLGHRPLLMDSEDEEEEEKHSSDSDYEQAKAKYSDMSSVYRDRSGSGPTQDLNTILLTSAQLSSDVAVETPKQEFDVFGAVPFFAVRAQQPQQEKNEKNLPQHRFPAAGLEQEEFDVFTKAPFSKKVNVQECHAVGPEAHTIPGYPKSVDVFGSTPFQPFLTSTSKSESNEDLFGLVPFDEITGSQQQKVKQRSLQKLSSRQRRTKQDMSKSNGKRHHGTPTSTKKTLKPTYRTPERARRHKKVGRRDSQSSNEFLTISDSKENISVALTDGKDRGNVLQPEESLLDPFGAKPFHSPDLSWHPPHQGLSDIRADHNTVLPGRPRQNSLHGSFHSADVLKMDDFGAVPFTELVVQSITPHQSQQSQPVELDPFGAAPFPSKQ

[23] = target: Serine/threonine-protein kinase ULK1 (Homo sapiens, UniProt O75385); assay: ULK1(ULK1LGF1) Takeda global kinase panel
[24] = target: Interferon-induced, double-stranded RNA-activated protein kinase (Homo sapiens, UniProt P19525); assay: PKR(EIK2LGY1) Takeda global kinase panel
[25] = target: G protein-coupled receptor kinase 6 (Homo sapiens, UniProt P43250); assay: GRK6(GRK6LGP1) Takeda global kinase panel
[26] = target: D(1A) dopamine receptor (Homo sapiens) (UniProt P21728); details: Compound concentration 10.0 uM
Aurora kinase B = Aurora kinase B (Homo sapiens, UniProt Q96GD4); assay: AurB [Aur1(AURBPGE1)] Takeda global kinase panel
[27] = target: Mitogen-activated protein kinase 14 (Homo sapiens, UniProt Q16539); assay: p38alpha(MP14LGI1) Takeda global kinase panel
[28] = target: Tyrosine-protein kinase Mer (Homo sapiens, UniProt Q12866); assay: Mer(MERTLGF1) Takeda global kinase panel
[29] = target: Dual specificity testis-specific protein kinase 2 (Homo sapiens, UniProt Q96S53); assay: TESK2(TES2LGRL) Takeda global kinase panel
[30] = target: Cyclin-dependent kinase 3 (Homo sapiens, UniProt Q00526); assay: CDK3(CDK3CGS1) Takeda global kinase panel
Ephrin type-A receptor 7 = Ephrin type-A receptor 7 (Homo sapiens, UniProt Q15375); assay: EphA7(EPA7LGF1) Takeda global kinase panel
[31] = target: Androgen receptor (Homo sapiens) (UniProt P10275); details: Compound concentration 10.0 uM
SRSF protein kinase 2 = SRSF protein kinase 2 (Homo sapiens, UniProt P78362); assay: SRPK2(SRP2IGRL) Takeda global kinase panel
[32] = target: Adenosine receptor A2a (Homo sapiens) (UniProt P29274); details: Compound concentration 10.0 uM
Adenosine receptor A2a (Homo sapiens), sequence (P29274 whole entry): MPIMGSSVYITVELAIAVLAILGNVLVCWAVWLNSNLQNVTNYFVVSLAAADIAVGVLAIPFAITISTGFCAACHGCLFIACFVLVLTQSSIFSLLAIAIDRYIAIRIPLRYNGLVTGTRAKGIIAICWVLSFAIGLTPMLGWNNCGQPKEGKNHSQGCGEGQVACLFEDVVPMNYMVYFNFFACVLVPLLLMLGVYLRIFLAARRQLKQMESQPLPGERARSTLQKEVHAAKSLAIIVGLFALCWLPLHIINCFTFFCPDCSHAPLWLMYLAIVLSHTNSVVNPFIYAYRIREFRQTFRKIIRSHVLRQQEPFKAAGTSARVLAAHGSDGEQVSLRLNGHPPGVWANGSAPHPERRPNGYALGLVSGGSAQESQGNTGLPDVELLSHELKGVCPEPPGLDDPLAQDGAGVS

[33] = target: Cyclin-dependent kinase 5 (Homo sapiens, UniProt Q00535); assay: CDK5(CDK5CGS1) Takeda global kinase panel

Neuropeptide Y receptor type 1 (Homo sapiens), sequence (P25929 whole entry, the tested form may be a part): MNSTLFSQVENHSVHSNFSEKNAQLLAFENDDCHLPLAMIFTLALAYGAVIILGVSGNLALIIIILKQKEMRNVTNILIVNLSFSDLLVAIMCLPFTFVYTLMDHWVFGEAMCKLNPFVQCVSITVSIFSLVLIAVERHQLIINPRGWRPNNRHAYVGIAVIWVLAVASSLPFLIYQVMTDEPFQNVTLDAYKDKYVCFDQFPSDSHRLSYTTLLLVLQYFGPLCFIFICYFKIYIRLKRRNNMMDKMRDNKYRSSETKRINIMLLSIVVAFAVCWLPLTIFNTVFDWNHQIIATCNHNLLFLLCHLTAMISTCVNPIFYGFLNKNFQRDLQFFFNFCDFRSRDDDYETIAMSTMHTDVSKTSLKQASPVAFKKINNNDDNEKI

SMILES | inhibition [1] [%] | IC50 (LIM domain kinase 2) [µM] | IC50 [2] [µM] | inhibition [3] [%] | IC50 (Ephrin type-A receptor 4) [µM] | IC50 (Ephrin type-A receptor 8) [µM] | IC50 [4] [µM] | IC50 [5] [µM] | IC50 [6] [µM] | IC50 [7] [µM] | IC50 [8] [µM] | IC50 (Ephrin type-B receptor 3) [µM] | IC50 [9] [µM] | IC50 [10] [µM] | IC50 [11] [µM] | IC50 [12] [µM] | IC50 [13] [µM] | IC50 [14] [µM] | IC50 [15] [µM] | IC50 [16] [µM] | also measured
CN1C(=O)[C@@H](N2CCc3cn(Cc4ccccc4)nc3C2=O)COc2ccccc21 [TP-030-1] | 4 | 1 | 1 | -4 | 1 | 1 | 1 | 1 | 1 | 1 | 1 | 1 | 1 | 1 | 1 | 1 | 1 | 1 | 1 | 1 | IC50 [17]: 1 µM; IC50 [18]: 1 µM; IC50 [19]: 1 µM; IC50 [20]: 1 µM; IC50 [21]: 1 µM; IC50 [22]: 1 µM; IC50 [23]: 1 µM; IC50 [24]: 1 µM; IC50 [25]: 1 µM; inhibition [26]: -4%; IC50 (Aurora kinase B): 1 µM; IC50 [27]: 1 µM; IC50 [28]: 1 µM; IC50 [29]: 1 µM; IC50 [30]: 1 µM; IC50 (Ephrin type-A receptor 7): 1 µM; inhibition [31]: 6%; IC50 (SRSF protein kinase 2): 1 µM; inhibition [32]: 10%; IC50 [33]: 1 µM
CN1C(=O)[C@@H](N2CCc3cn(CC4CCS(=O)(=O)CC4)nc3C2=O)COc2ccccc21 [TP-030n] | -3 | 1 | 1 | 9 | 1 | 1 | 1 | 1 | 1 | 1 | 1 | 1 | 1 | 1 | 1 | 1 | 1 | 1 | 1 | 1 | IC50 [17]: 1 µM; IC50 [18]: 1 µM; IC50 [19]: 1 µM; IC50 [20]: 1 µM; IC50 [21]: 1 µM; IC50 [22]: 1 µM; IC50 [23]: 1 µM; IC50 [24]: 1 µM; IC50 [25]: 1 µM; inhibition [26]: 7%; IC50 (Aurora kinase B): 1 µM; IC50 [27]: 1 µM; IC50 [28]: 1 µM; IC50 [29]: 1 µM; IC50 [30]: 1 µM; IC50 (Ephrin type-A receptor 7): 1 µM; inhibition [31]: 0%; IC50 (SRSF protein kinase 2): 1 µM; inhibition [32]: -8%; IC50 [33]: 1 µM
